Source: patent US6979686B1, “Substituted pyrazoles as p38 kinase inhibitors” (Pharmacia Corporation, priority 2001, dated 2005)
pIC50: −log10 of the molar value. Read-outs that look alike come from different tables or passages of the source. Blank lines part the entries; values can stand above or below the compound they belong to.

Biological target: T1, human p38 kinase alpha (Homo sapiens, UniProt Q16539)
T1 construct: GST (N, cleaved yes); made in house; host or cells: E. coli DH10B
Assay: p38 kinase in vitro assay, phosphorylation of biotinylated PHAS-I with 32P-ATP
Type: biochemical
Conditions: for pIC50: read-out: P38 alpha kinase IC50

[1] = in vitro P38-alpha kinase inhibition

T1 sequence (Q16539 whole entry): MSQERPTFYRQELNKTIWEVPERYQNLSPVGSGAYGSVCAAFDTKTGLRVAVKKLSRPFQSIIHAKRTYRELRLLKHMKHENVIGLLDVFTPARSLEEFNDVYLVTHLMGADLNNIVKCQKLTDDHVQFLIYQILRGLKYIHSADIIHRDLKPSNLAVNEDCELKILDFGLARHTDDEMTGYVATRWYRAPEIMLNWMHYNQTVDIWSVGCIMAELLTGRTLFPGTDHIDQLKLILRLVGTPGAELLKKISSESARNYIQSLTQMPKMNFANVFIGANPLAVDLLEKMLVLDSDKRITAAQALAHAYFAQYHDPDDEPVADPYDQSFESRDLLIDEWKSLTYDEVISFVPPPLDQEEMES

SMILES: O=S(=O)(NCCCc1[nH]nc(-c2ccc(F)cc2)c1-c1ccncc1)c1ccccc1Cl [Example B-1268]
pIC50 (in vitro P38-alpha kinase): > 7.00

SMILES: C[C@@H](NS(=O)(=O)Cc1ccccc1[N+](=O)[O-])c1[nH]nc(-c2ccc(F)cc2)c1-c1ccncc1 [Example B-0442]
pIC50 [1]: > 7.00

SMILES: COCC(=O)NCCc1[nH]nc(-c2ccc(F)cc2)c1-c1ccncc1 [Example B-0994]
P38 alpha kinase % inhib @ conc. (uM) (@ 1.0 uM): 55.0% @

SMILES: CCN(CC)CC(C)NC(=O)Cn1nc(-c2ccc(F)cc2)c(-c2ccncc2)c1C (centres unmarked) [Example B-2337]
P38 alpha kinase % inhib @ conc. (@ 10.0 uM): 46.0% @

SMILES: COc1ccc(S(=O)(=O)NC(Cc2ccccc2)c2[nH]nc(-c3ccc(F)cc3)c2-c2ccncc2)cc1 (centres unmarked) [Example B-0764]
pIC50 [1]: 6.17

SMILES: O=S(=O)(NCCCc1[nH]nc(-c2ccc(F)cc2)c1-c1ccncc1)c1cccc2cccnc12 [Example B-1248]
pIC50 (in vitro P38-alpha kinase): > 7.00

SMILES: Cc1ccc(S(=O)(=O)NC(Cc2ccccc2)c2[nH]nc(-c3ccc(F)cc3)c2-c2ccncc2)cc1 (centres unmarked) [Example B-0721]
pIC50 [1]: 5.42

SMILES: Cc1noc(C)c1C(=O)NCc1[nH]nc(-c2ccc(F)cc2)c1-c1ccncc1 [Example B-0304]
pIC50 (in vitro P38-alpha kinase): 6.26

SMILES: COc1ccc(S(=O)(=O)NC(C)c2[nH]nc(-c3ccc(F)cc3)c2-c2ccncc2)cc1OC (centres unmarked) [Example B-0577]
pIC50 [1]: 7.04

SMILES: Cc1c(-c2ccncc2)c(-c2ccc(F)cc2)nn1CC(=O)Nc1ccccc1C(C)(C)C [Example B-2435]
P38 alpha kinase IC50, uM or % inhib @ conc. (uM): % inhib (@ 10.0 uM): 84.0% @

SMILES: C=CCOC(=O)NC(Cc1ccccc1)c1[nH]nc(-c2ccc(F)cc2)c1-c1ccncc1 (centres unmarked) [Example B-0833]
pIC50 [1]: 6.02

SMILES: O=S(=O)(NCc1[nH]nc(-c2ccc(F)cc2)c1-c1ccncc1)c1cc(Br)c(Br)s1 [Example B-0136]
P38 alpha kinase % inhib @ conc. (@ 1.0 uM): 77.0% @

SMILES: O=S(=O)(NCCCc1[nH]nc(-c2ccc(F)cc2)c1-c1ccncc1)c1cccs1 [Example B-1203]
P38 alpha kinase % inhib @ conc. (@ 1.0 uM): 84.0% @

SMILES: COc1cc(NC(=O)NCCc2[nH]nc(-c3ccc(F)cc3)c2-c2ccncc2)cc(OC)c1OC [Example B-0979]
P38 alpha kinase % inhib @ conc. (uM) (@ 10.0 uM): 56.0% @

SMILES: Cc1c(-c2ccncc2)c(-c2ccc(F)cc2)nn1CC(=O)N(C)CCc1ccccc1 [Example B-2376]
P38 alpha kinase % inhib @ conc. (@ 10.0 uM): 32.0% @

SMILES: COC(=O)C(Cc1cn(C)cn1)NC(=O)Cn1nc(-c2ccc(F)cc2)c(-c2ccncc2)c1C (centres unmarked) [Example B-2361]
P38 alpha kinase % inhib @ conc. (@ 10.0 uM): 19.0% @

SMILES: O=C(NC(Cc1ccccc1)c1[nH]nc(-c2ccc(F)cc2)c1-c1ccncc1)c1ccc(F)c(F)c1F (centres unmarked) [Example B-0845]
pIC50 [1]: 5.75

SMILES: O=S(=O)(NCCc1[nH]nc(-c2ccc(F)cc2)c1-c1ccncc1)c1cccc2ccccc12 [Example B-1069]
pIC50 [1]: 6.66

SMILES: CC(NS(=O)(=O)C(F)(F)F)c1[nH]nc(-c2ccc(F)cc2)c1-c1ccncc1 (centres unmarked) [Example B-0568]
pIC50 [1]: 5.91

More lines, now with the values ahead:

pIC50 (in vitro P38-alpha kinase): 7.80
SMILES: O=C(c1c(Cl)cccc1Cl)N1CCC(c2[nH]nc(-c3ccc(F)cc3)c2-c2ccncc2)CC1 [Example B-1413]

inhibition at 1 µM (@ 1.0 uM, read-out: P38 alpha kinase % inhib @ conc.): 94%
SMILES: CCC(Oc1ccccc1)C(=O)NCc1[nH]nc(-c2ccc(F)cc2)c1-c1ccncc1 (centres unmarked) [Example B-0047]

P38 alpha kinase % inhib @ conc. (uM) (@ 1.0 uM): 86.0% @
SMILES: O=C(NCCc1[nH]nc(-c2ccc(F)cc2)c1-c1ccncc1)N1CCOCC1 [Example B-1033]

pIC50 (in vitro P38-alpha kinase): 5.50
SMILES: O=C(c1cccc(F)c1)N1CCC(c2[nH]nc(-c3ccc(F)cc3)c2-c2ccncc2)CC1 [Example B-1393]

pIC50 [1]: 6.64
SMILES: O=C(NCCc1[nH]nc(-c2ccc(F)cc2)c1-c1ccncc1)c1c(F)cc(F)cc1F [Example B-1135]

pIC50 (in vitro P38-alpha kinase): 5.80
SMILES: CCCOC(=O)N1CCC(c2[nH]nc(-c3ccc(F)cc3)c2-c2ccncc2)CC1 [Example B-1423]

pIC50 [1]: 6.92
SMILES: CC(NC(=O)c1ccccc1Br)c1[nH]nc(-c2ccc(F)cc2)c1-c1ccncc1 (centres unmarked) [Example B-0703]

pIC50 (in vitro P38-alpha kinase): > 7.00
SMILES: CCC(=O)N1CCC(c2[nH]nc(-c3ccc(F)cc3)c2-c2ccncc2)CC1 [Example B-1420]

pIC50 [1]: 5.71
SMILES: CC(NC(=O)c1cccc(Cl)c1Cl)c1[nH]nc(-c2ccc(F)cc2)c1-c1ccncc1 (centres unmarked) [Example B-0681]

P38 alpha kinase IC50, uM or % inhib @ conc. (uM): % inhib (@ 10.0 uM): 86.0% 2
SMILES: Cc1c(-c2ccncc2)c(-c2ccc(F)cc2)nn1CC(=O)Nc1ccccc1F [Example B-2432]

pIC50 [1]: 5.92
SMILES: CCNC(=O)NC(Cc1ccccc1)c1[nH]nc(-c2ccc(F)cc2)c1-c1ccncc1 (centres unmarked) [Example B-0788]

P38 alpha kinase % inhib @ conc. (uM) (@ 1.0 uM): 76.0% @
SMILES: O=C(NCCc1[nH]nc(-c2ccc(F)cc2)c1-c1ccncc1)N1CCCC1 [Example B-1032]

pIC50 (in vitro P38-alpha kinase): 6.00
SMILES: O=C(c1ccc(Cl)c(Cl)c1)N1CCC(c2[nH]nc(-c3ccc(F)cc3)c2-c2ccncc2)CC1 [Example B-1418]

pIC50 [1]: 6.30
SMILES: O=C(NC(Cc1ccccc1)c1[nH]nc(-c2ccc(F)cc2)c1-c1ccncc1)N1CCCC1 (centres unmarked) [Example B-0771]

pIC50 (in vitro P38-alpha kinase): 6.66
SMILES: CS(=O)(=O)c1ccccc1S(=O)(=O)N1CCC(c2[nH]nc(-c3ccc(F)cc3)c2-c2ccncc2)CC1 [Example B-1462]

pIC50 [1]: > 7.00
SMILES: O=S(=O)(NCCc1[nH]nc(-c2ccc(F)cc2)c1-c1ccncc1)c1ccccc1C(F)(F)F [Example B-1086]
